Activity calls are given as the source filed them. The calls are words filed in the database; no cut-off is given here.
How the values were obtained:
HCT-116 [1] = experiment: Induction of G2/M phase cell cycle arrest in human HCT-116 cells assessed as decrease in CDK1 protein expression at 2.5 to 5 uM measured for 48 hrs by Western blot analysis; assay type: functional, cell-based; conditions: dose 2.5-5 µM
[2] = Antiproliferative activity against human HS27 cells assessed as reduction in cell viability measured after 48 hrs by MTT assay; assay type: toxicity, cell-based
HCT-116 [3] = experiment: Antitumor activity against human HCT-116 cells xenografted in iv dosed nude mouse assessed as decrease in tumor volume measured for 23 days; assay type: functional, organism-based; conditions: dose 3-4 mg/kg, time 23.0 day
HCT-116 [4] = experiment: Induction of apoptosis in human HCT-116 cells assessed as increase in Bax mRNA expression at 5 uM measured for 48 hrs by qRT-PCR analysis; assay type: functional, cell-based
HCT-116 [5] = experiment: Antiproliferative activity against human HCT-116 cells assessed as reduction in cell viability measured after 48 hrs by BrdU staining based assay; assay type: functional; conditions: HCT-116, 48 h
HCT-116 [6] = experiment: Induction of G2/M phase cell cycle arrest in human HCT-116 cells assessed as decrease in cyclin A2 mRNA expression at 2.5 to 5 uM measured after 24 hrs by qRT-PCR analysis; assay type: functional, cell-based; conditions: dose 2.5-5 µM
HCT-116 [7] = experiment: Downregulation of FAT1 mRNA expression in human HCT-116 cells at 2.5 to 5 uM measured after 24 hrs by qRT-PCR analysis; assay type: functional, cell-based; conditions: dose 2.5-5 µM
HCT-116 [8] = experiment: Antitumor activity against human HCT-116 cells xenografted in nude mouse assessed as reduction in tumor weight at 3 to 4 mg/kg, iv measured for 23 days; assay type: functional, organism-based; conditions: dose 3-4 mg/kg, time 23.0 day
HCT-116 [9] = experiment: Induction of cell cycle arrest in human HCT-116 cells assessed as upregulation of p53 mRNA expression at 2.5 to 5 uM measured after 24 hrs by qRT-PCR analysis; assay type: functional, cell-based; conditions: dose 2.5-5 µM
[10] = Toxicity in nude mouse xenografted with human HCT-116 cells assessed as body weight loss at 3 to 4 mg/kg, iv measured for 23 days; assay type: organism-based; conditions: in vivo, 552 h, dose 3-4 mg/kg, time 23 day
SW480 = experiment: Antiproliferative activity against human SW480 cells assessed as reduction in cell viability measured after 48 hrs by MTT assay; assay type: functional, cell-based; conditions: SW480, 48 h
[11] = Toxicity in nude mouse xenografted with human HCT-116 cells assessed as change in plasma ALT level at 3 to 4 mg/kg, iv measured for 23 days; assay type: organism-based; conditions: in vivo, 552 h, dose 3-4 mg/kg, time 23 day
[12] = target: T1, Nuclear factor NF-kappa-B complex (Homo sapiens) (UniProt Q00653+P19838+Q04206); experiment: Inhibition of TNFalpha induced-NFkB phosphorylation in human HCT-116 cells at 1 to 5 uM pretreated for 24 hrs followed by TNFalpha induction and measured after 24 hrs by Western blot analysis; assay type: cell-based; conditions: dose 1-5 µM, time 48.0 hrs
HCT-116 [13] = experiment: Induction of G2/M phase cell cycle arrest in human HCT-116 cells assessed as decrease in cyclin A2 protein expression at 2.5 to 5 uM measured for 48 hrs by Western blot analysis; assay type: functional, cell-based; conditions: dose 2.5-5 µM
HT-29 = experiment: Antiproliferative activity against human HT-29 cells assessed as reduction in cell viability measured after 48 hrs by MTT assay; assay type: functional, cell-based; conditions: HT-29, 48 h
HCT-116 [14] = experiment: Downregulation of PDCD4 mRNA expression in human HCT-116 cells by qRT-PCR analysis; assay type: functional, cell-based; conditions: dose 1-5 µM
HCT-116 [15] = experiment: Downregulation of FAT1 protein expression in human HCT-116 cells measured at 24 to 48 hrs by Western blot analysis; assay type: functional, cell-based; conditions: dose 0.5-5 µM, time 24-48 hrs
HCT-116 [16] = experiment: Antitumor activity against human HCT-116 cells xenografted in nude mouse model assessed as reduction in FAT1 expression in tumor tissue at 3 to 4 mg/kg, iv administered for 23 days by IHC analysis; assay type: functional, organism-based; conditions: dose 3-4 mg/kg, time 23.0 day
HCT-116 [17] = experiment: Upregulation of SERPINE1 mRNA expression in human HCT-116 cells at 2.5 to 5 uM measured after 24 hrs by qRT-PCR analysis; assay type: functional, cell-based; conditions: dose 2.5-5 µM
[18] = Toxicity in nude mouse xenografted with human HCT-116 cells assessed as effect on body weight at 3 to 4 mg/kg, iv measured for 23 days; assay type: organism-based; conditions: in vivo, 552 h, dose 3-4 mg/kg, time 23 day
HCT-116 [19] = experiment: Antitumor activity against human HCT-116 cells xenografted in nude mouse assessed as decrease in tumor volume at 3 to 4 mg/kg, iv measured for 23 days; assay type: functional, organism-based; conditions: dose 3-4 mg/kg, time 23.0 day
HCT-116 [20] = experiment: Induction of cell cycle arrest in human HCT-116 cells assessed as upregulation of p53 protein expression at 2.5 to 5 uM measured for 48 hrs by Western blot analysis; assay type: functional, cell-based; conditions: dose 2.5-5 µM
[21] = target: T1, Nuclear factor NF-kappa-B complex (Homo sapiens); experiment: Inhibition of TNFalpha induced-NFkB phosphorylation in human HCT-116 cells at 5 uM pretreated for 24 hrs followed by TNFalpha induction and measured after 24 hrs by Western blot analysis; assay type: cell-based; conditions: time 48.0 hrs
HCT-116 [22] = experiment: Antitumor activity against human HCT-116 cells xenografted in nude mouse model assessed as increase in p53 protein expression in tumor tissue at 3 to 3.5 mg/kg, iv administered for 23 days by Western blot analysis; assay type: functional, organism-based; conditions: dose 3-3.5 mg/kg, time 23.0 day
HCT-116 [23] = experiment: Induction of apoptosis in human HCT-116 cells at 5 uM measured for 48 hrs by annexin V/PI staining based analysis; assay type: functional, cell-based
HCT-116 [24] = experiment: Antitumor activity against human HCT-116 cells xenografted in nude mouse model assessed as reduction in Ki67 expression in tumor tissue at 3 to 4 mg/kg, iv administered for 23 days by […] analysis; assay type: functional, organism-based; conditions: dose 3-4 mg/kg, time 23.0 day
HCT-116 [25] = experiment: Induction of cell cycle arrest in human HCT-116 cells assessed as upregulation of p21 mRNA expression at 2.5 to 5 uM measured after 24 hrs by qRT-PCR analysis; assay type: functional, cell-based; conditions: dose 2.5-5 µM
HCT-116 [26] = experiment: Induction of cell cycle arrest in human HCT-116 cells assessed as upregulation of 14-3-3sigma mRNA expression at 2.5 to 5 uM measured after 24 hrs by qRT-PCR analysis; assay type: functional, cell-based; conditions: dose 2.5-5 µM
HCT-116 [27] = experiment: Antiproliferative activity against human HCT-116 cells assessed as reduction in cell viability at 5 uM measured after 48 hrs by MTT assay; assay type: functional, cell-based
HCT-116 [28] = experiment: Antiproliferative activity against human HCT-116 cells assessed as reduction in cell viability measured after 48 hrs by MTT assay; assay type: functional, cell-based; conditions: HCT-116, 48 h
[29] = Toxicity in nude mouse xenografted with human HCT-116 cells assessed as change in plasma LDH level at 3 to 4 mg/kg, iv measured for 23 days; assay type: organism-based; conditions: in vivo, 552 h, dose 3-4 mg/kg, time 23 day
[30] = Antiproliferative activity against human PBMC cells assessed as reduction in cell viability measured after 48 hrs by MTT assay; assay type: toxicity, cell-based
HCT-116 [31] = experiment: Induction of apoptosis in human HCT-116 cells assessed as decrease in Bcl2 mRNA expression at 5 uM measured for 48 hrs by qRT-PCR analysis; assay type: functional, cell-based
HCT-116 [32] = experiment: Induction of cell cycle arrest in human HCT-116 cells assessed as accumulation of cells at G2 phase at 2.5 to 5 uM measured after 48 hrs by PI staining based flow cytometry method; assay type: functional; conditions: dose 2.5-5 µM
[33] = Toxicity in nude mouse xenografted with human HCT-116 cells assessed as change in plasma AST level at 3 to 4 mg/kg, iv measured for 23 days; assay type: organism-based; conditions: in vivo, 552 h, dose 3-4 mg/kg, time 23 day
HCT-116 [34] = experiment: Antitumor activity against human HCT-116 cells xenografted in iv dosed nude mouse model assessed as increase in apoptosis in tumor tissue measured for 23 days by TUNEL staining based analysis; assay type: functional, organism-based; conditions: dose 3-4 mg/kg, time 23.0 day
[35] = Toxicity in nude mouse xenografted with human HCT-116 cells assessed as change in plasma CK level at 3 to 4 mg/kg, iv measured for 23 days; assay type: organism-based; conditions: in vivo, 552 h, dose 3-4 mg/kg, time 23 day
HCT-116 [36] = experiment: Antitumor activity against human HCT-116 cells xenografted in nude mouse assessed as decrease in tumor volume at 4 mg/kg, iv measured at day 9; assay type: functional, organism-based; conditions: time 9.0 day

T1 sequence (P19838 whole entry, looked up): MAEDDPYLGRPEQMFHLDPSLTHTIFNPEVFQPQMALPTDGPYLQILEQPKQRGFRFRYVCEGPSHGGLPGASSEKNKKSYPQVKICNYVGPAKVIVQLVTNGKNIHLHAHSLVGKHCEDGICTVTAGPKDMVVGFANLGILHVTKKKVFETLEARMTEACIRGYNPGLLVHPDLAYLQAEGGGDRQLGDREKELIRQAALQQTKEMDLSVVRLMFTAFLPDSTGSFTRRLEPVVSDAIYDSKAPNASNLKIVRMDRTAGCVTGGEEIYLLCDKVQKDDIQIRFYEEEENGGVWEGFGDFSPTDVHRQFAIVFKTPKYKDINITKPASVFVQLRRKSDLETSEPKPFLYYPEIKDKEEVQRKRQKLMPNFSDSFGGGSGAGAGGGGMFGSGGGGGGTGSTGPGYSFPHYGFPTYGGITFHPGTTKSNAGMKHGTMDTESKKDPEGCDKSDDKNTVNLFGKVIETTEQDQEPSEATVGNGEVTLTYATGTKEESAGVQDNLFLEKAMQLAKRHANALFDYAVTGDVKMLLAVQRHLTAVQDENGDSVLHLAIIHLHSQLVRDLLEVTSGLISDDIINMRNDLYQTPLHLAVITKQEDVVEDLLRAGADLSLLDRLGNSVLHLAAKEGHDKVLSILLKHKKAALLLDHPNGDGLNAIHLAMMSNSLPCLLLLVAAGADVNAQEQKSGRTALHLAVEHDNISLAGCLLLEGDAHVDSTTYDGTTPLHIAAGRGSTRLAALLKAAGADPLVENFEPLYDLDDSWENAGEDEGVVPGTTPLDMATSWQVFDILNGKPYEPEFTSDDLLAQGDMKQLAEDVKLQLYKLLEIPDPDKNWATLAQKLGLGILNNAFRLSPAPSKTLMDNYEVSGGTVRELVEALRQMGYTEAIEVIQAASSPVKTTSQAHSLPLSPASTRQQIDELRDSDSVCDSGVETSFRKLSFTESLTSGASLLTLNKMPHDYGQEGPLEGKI
T1 sequence (Q00653 whole entry, looked up): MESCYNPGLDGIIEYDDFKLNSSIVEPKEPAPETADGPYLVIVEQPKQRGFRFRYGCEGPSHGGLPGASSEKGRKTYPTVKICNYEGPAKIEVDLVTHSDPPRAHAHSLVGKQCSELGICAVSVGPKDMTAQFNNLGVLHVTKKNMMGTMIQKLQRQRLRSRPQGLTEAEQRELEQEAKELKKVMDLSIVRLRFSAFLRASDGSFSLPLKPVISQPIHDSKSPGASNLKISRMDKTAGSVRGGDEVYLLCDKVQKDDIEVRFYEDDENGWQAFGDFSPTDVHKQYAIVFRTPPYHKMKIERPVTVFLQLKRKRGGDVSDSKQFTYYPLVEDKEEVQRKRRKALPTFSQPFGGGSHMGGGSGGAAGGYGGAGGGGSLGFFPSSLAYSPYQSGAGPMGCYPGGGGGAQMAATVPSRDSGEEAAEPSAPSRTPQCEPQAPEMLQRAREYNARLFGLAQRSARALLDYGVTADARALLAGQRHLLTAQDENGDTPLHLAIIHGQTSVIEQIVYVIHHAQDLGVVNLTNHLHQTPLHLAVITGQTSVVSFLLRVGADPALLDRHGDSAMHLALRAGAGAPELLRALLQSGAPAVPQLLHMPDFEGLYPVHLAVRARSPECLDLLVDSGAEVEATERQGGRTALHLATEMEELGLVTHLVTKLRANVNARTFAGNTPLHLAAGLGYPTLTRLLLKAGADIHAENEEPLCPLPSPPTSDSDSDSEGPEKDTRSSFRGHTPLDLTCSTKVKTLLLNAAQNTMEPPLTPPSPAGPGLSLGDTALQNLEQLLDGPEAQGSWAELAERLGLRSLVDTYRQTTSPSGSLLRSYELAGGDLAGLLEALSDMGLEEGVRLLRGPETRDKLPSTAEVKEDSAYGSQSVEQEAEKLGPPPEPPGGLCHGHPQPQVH
T1 sequence (Q04206 whole entry, looked up): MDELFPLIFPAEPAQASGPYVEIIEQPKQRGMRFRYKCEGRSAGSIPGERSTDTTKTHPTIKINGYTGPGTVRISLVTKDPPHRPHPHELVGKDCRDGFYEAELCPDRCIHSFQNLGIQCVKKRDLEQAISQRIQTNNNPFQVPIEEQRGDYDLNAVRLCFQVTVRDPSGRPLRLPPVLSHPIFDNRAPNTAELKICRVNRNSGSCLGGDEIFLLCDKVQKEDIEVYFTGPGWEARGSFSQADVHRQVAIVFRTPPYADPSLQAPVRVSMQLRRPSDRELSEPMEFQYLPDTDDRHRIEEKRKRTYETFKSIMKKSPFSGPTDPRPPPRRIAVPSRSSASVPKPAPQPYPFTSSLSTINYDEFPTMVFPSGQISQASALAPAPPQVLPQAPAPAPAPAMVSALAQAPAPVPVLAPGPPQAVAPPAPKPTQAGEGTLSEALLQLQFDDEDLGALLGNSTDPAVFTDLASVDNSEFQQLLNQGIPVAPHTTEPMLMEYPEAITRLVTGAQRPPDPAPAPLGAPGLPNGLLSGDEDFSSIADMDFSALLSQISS

For C=C(C)[C@H]1CC[C@@](C)(O)[C@@H](C2=C(O)[C@@](C)(CC=C(C)C)C(=O)C(C(=O)C(C)C)=C2O)C1, the Activity (HCT-116 [1]) was “Active”, the IC50 at 48 h [2] was greater than 100 µM and the Activity (HCT-116 [3]) was “Dose-Dependent Effect”. The Activity (HCT-116 [4]) was “Active”, the IC50 (HCT-116 [5]) was 1.53 µM and the Activity (HCT-116 [6]) was “Active”. For the same compound, the Activity (HCT-116 [7]) was “Active”, the Activity (HCT-116 [8]) was “Active” and the Activity (HCT-116 [9]) was “Active”. The Activity [10] was “Non-Toxic”, the IC50 (SW480) was 22.2 µM and the Activity [11] was “Non-Toxic”. For the same compound, the inhibition [12] was “inactive”, the Activity (HCT-116 [13]) was “Active” and the IC50 (HT-29) was 11.6 µM. The Activity (HCT-116 [14]) was “Dose-Dependent Effect”, the Activity (HCT-116 [15]) was “Dose-Dependent Effect” and the Activity (HCT-116 [16]) was “Active”. The Activity (HCT-116 [17]) was “Active”, the Activity [18] was “Non-Toxic” and the Activity (HCT-116 [19]) was “Active”. For the same compound, the Activity (HCT-116 [20]) was “Active”, the inhibition [21] was “Active” and the Activity (HCT-116 [22]) was “Active”. The Activity (HCT-116 [23]) was “Active”, the Activity (HCT-116 [24]) was “Active” and the Activity (HCT-116 [25]) was “Active”. For the same compound, the Activity (HCT-116 [26]) was “Active”, the Activity (HCT-116 [27]) was “Active” and the IC50 (HCT-116 [28]) was 4.37 µM. For the same compound, the Activity [29] was “Non-Toxic”, the IC50 at 48 h [30] was greater than 100 µM and the Activity (HCT-116 [31]) was “Active”. For the same compound, the Activity (HCT-116 [32]) was “Active”, the Activity [33] was “Non-Toxic” and the Activity (HCT-116 [34]) was “Dose-Dependent Effect”. For the same compound, the Activity [35] was “Non-Toxic” and the Activity (HCT-116 [36]) was “Active”.
